Activity calls are given as the source filed them. The rule behind the calls is not given here.
What was measured:
CCRF-CEM = experiment: Cytotoxicity against human CEM cells after 48 hrs by trypan blue assay; assay type: functional, cell-based
L1210 [1] = experiment: Cytotoxicity against mouse L1210 cells after 48 hrs by trypan blue assay; assay type: functional, cell-based; conditions: L1210, 48 h
[2] = target: T1, Telomerase reverse transcriptase (Homo sapiens, UniProt O14746); experiment: Inhibition of human telomerase transfected in human HEK293T cells assessed as DNA extension using 5'-d(AATCCGTCGAGCAGAGTT)-3' substrate by Real-time quantitative telomeric repeat amplification protocol; assay type: cell-based; conditions: hek-293t
Homo sapiens [3] = organism: Homo sapiens; experiment: Binding affinity to human telomeric G-quadruplex TelQ22-DA DNA assessed as change in melting temperature by FRET assay
Homo sapiens [4] = organism: Homo sapiens; experiment: Binding affinity to human telomeric G-quadruplex TelQ22-DA DNA assessed as interaction with compound at 25 degC by isothermal titration calorimetry
Homo sapiens [5] = organism: Homo sapiens; experiment: Binding affinity to human telomeric G-quadruplex TelQ24 (5'-d(TTAGGG)4)-3') DNA at 25 degC by fluorescent intercalator displacement assay
Homo sapiens [6] = organism: Homo sapiens; experiment: Binding affinity to human telomeric G-quadruplex TelQ22-DA DNA at 65 degC by FRET melting assay
[7] = target: T1, Telomerase reverse transcriptase; experiment: Inhibition of human telomerase transfected in human HEK293T cells assessed as DNA extension using 5'-d(AATCCGTCGAGCAGAGTT)-3' substrate; assay type: cell-based; conditions: hek-293t
[8] = target: T2, DNA topoisomerase 1 (Homo sapiens) (UniProt P11387); experiment: Inhibition of topoisomerase 1 (unknown origin)-mediated relaxation of supercoiled pBR322 at 1 uM after 30 mins by agarose gel electrophoresis
T2 sequence (whole entry): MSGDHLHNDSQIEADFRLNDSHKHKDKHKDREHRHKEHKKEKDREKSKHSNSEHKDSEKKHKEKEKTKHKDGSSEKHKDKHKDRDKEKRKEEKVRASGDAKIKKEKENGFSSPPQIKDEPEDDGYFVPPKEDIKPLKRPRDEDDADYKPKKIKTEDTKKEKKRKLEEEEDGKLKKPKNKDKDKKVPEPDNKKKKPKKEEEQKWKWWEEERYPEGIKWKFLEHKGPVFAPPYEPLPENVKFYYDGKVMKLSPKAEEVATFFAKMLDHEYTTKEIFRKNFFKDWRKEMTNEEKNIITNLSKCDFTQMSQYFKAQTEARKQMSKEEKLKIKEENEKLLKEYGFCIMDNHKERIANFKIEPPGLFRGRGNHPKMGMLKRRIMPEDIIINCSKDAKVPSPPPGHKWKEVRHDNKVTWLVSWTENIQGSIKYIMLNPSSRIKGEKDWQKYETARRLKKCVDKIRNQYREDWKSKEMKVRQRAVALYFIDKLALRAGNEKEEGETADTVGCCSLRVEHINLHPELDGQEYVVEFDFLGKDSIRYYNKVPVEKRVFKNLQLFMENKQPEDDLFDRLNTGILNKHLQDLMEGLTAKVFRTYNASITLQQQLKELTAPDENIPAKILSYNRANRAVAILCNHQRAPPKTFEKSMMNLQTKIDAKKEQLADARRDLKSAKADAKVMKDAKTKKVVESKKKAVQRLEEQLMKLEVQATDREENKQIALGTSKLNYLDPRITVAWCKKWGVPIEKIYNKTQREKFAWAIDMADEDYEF

L1210 [9] = experiment: Drug uptake in mouse L1210 cells at 1 uM after 15 mins; assay type: ADME, cell-based; conditions: l1210, 0.25 h
L1210 [10] = experiment: Drug uptake in mouse L1210 cells at 1 uM after 3 hrs; assay type: ADME, cell-based; conditions: l1210, 3 h

T1 sequence (O14746 whole entry): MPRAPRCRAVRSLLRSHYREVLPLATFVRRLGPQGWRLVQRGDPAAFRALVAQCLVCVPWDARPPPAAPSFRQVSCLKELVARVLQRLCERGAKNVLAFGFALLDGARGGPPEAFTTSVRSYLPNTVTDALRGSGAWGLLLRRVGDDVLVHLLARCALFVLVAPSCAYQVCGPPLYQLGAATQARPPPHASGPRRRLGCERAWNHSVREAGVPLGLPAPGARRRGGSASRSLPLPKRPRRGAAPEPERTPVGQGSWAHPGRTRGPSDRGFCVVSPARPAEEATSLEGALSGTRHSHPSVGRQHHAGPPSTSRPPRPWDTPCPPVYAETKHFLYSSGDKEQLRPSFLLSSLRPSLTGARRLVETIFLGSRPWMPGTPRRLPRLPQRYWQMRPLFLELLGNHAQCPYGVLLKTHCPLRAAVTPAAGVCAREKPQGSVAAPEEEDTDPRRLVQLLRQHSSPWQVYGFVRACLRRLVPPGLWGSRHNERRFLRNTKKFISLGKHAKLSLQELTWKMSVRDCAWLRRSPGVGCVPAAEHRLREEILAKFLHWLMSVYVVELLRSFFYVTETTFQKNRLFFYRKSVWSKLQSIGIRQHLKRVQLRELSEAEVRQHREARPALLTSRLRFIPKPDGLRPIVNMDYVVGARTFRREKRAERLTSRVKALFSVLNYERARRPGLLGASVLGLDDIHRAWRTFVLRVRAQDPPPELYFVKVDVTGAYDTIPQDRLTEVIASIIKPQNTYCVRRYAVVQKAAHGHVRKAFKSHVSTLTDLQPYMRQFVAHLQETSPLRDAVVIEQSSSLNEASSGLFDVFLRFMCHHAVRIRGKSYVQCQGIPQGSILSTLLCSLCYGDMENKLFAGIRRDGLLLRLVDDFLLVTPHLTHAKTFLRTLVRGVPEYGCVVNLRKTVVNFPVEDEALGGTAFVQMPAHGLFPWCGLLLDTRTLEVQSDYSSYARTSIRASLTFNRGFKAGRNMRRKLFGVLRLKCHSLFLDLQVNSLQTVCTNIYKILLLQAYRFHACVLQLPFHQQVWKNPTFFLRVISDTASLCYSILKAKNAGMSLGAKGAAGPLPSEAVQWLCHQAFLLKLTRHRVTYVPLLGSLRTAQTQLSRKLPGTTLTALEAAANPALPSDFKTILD

Compound	IC50 (CCRF-CEM) [µM]	IC50 (L1210 [1]) [µM]	IC50 [2] [µM]	ΔTm (Homo sapiens [3]) [°C]	Kb (Homo sapiens [4]) [×10⁶ /M]	Kb (Homo sapiens [5]) [×10⁶ /M]	Kb (Homo sapiens [6]) [×10⁶ /M]	IC50 [7] [µM]	inhibition [8]	Drug uptake (L1210 [9])	Drug uptake (L1210 [10])
N=C(N)NCCNc1c2c(c(N)c3sccc13)C(=O)c1ccccc1C2=O	16	19	0.9	1	0.6	1.6	0.2	2	–	–	–
CC(=N)NCCNc1c2c(c(NCCNC(C)=N)c3sccc13)C(=O)c1ccccc1C2=O	39	36	0.3	7	1.1	8	2.4	0.47	Active	–	–
Cl.N=C(N)NCCNc1c2c(c(NCCCN)c3sccc13)C(=O)c1ccccc1C2=O	10	10	0.07	10	3.7	9	5	0.7	Active	Active	Active
CNCCNc1c2c(c(NCCNC(=N)N)c3ccsc13)C(=O)c1ccccc1C2=O	6	23	0.3	5.4	4.9	5.5	1.6	0.6	Active	–	–
Nc1c2c(c(N)c3sccc13)C(=O)c1ccccc1C2=O	> 250	> 250	33	0.1	–	1.3	0.01	10	–	–	–
CNCCNc1c2c(c(NCCNC(=N)N)c3sccc13)C(=O)c1ccccc1C2=O	11	16	0.05	5.1	2.5	4	1.5	1.1	–	–	–
N=C(N)NCCNc1c2c(c(NCCN)c3sccc13)C(=O)c1ccccc1C2=O	7	16	0.1	5	11	12	1.5	0.8	Active	–	–
Cl.N=C(N)NCCNc1c2c(c(NCCNC(=N)N)c3sccc13)C(=O)c1ccccc1C2=O	11	20	0.08	12	–	8	7	0.7	Active	Active	Active
CNCCNc1c2c(c(NCCNC)c3sccc13)C(=O)c1ccccc1C2=O.Cl	–	0.9	0.5	4.3	1.6	11	1.1	0.7	Active	Active	Active
N=C(N)NCCNc1c2c(c(N)c3ccsc13)C(=O)c1ccccc1C2=O	21	22	0.5	1	0.5	2.1	0.1	3	Active	–	–

Reference: ChEMBL document CHEMBL3351222, “Novel multi-targeting anthra[2,3-b]thiophene-5,10-diones with guanidine-containing side chains: interaction with telomeric G-quadruplex, inhibition of telomerase and topoisomerase I and cytotoxic properties” (Eur J Med Chem, 2014)
